Experiment: Trial 2 (France): blinded randomised field trial in weaned piglets, weight gain, feed intake and feed conversion ratio versus in-feed colistin
Type: in vivo
Protocol: Aim: The objective of this study was to compare the feed conversion ratios of piglets administered a single dose of my formulation with in feed colistin, an antibiotic.
Study Outline: This study was a blinded, controlled, randomised field trial comparing three parallel groups of piglets, (n=89 per group): 1. Colistin; 2. My formulation; and 3. No treatment. In this study, whole litters are randomised to receive different treatments, so litters are treated on a whole litter basis.
Weaning on this farm occurs in 2 stages. In stage 1, piglets are weaned by removing the sow (at day-5). Then on day 0, piglets are moved to their weaning pen.
At day-5, Group 1 piglets were administered colistin (9 kg antibiotic premix per Ton of feed) in pre-starter feed for 14 days (day-5 to day 9). The other two groups were administered pre-starter feed alone. On day 0 (5 days post weaning), when piglets are moved to their weaner pens, Group 2 piglets received a single dose of my formulation. Group 3 piglets were untreated.
Analysis: As Per Study 1.

[1] = pre-starter phase (d-5 to d9), 6 pens

colistin
Average Daily Weight gain (Post weaning): 377 ± 82 g
Average Daily Weight gain (Post weaning and fattening (overall)): 664 ± 67 g
Average Daily Weight gain (Pre-starter (d -5 to d 9)): 167 ± 67 g
Average Daily Weight gain (Starter): 505 ± 110 g
Feed Conversion Ratio, Arithmetic Mean [1]: 2.71
Feed Conversion Ratio, Median [1]: 2.59
Feed Conversion Ratio, Min-Max [1]: 1.75-3.42
Feed intake, Arithmetic Mean [1]: 417 g
Feed intake, Min-Max [1]: 358 to 479 g
